In the experiment the target is T1, Akt1 (Homo sapiens, UniProt P31749, S473D).
T1 construct: The version of Akt used in these studies lacks the pleckstrin homology (PH) domain
The experiment can be described thus: Akt1 kinase assay, fluorescence polarization (IMAP). The experiment is classed as biochemical. As for the experimental part: The Akt1 kinase assay is based on the measurement of fluorescence polarization using IMAP technology (Molecular Devices Corporation #R8062). Two microliters of inhibitor compounds diluted to a concentration of 10 millimolar are added to column 2 of a polypropylene 96-well plate containing 98 microliters of 100% DMSO; the wells in columns 3-12 contain 60 microliters of 100% DMSO. The various test compounds are serially diluted 1:3 across the plate by pipetting 30 microliters of compounds into wells containing 60 microliters of 100% DMSO. Column 12 receives DMSO only and is used as a negative control for inhibition. The components of the wells are mixed and 15 microliters of each well are transferred to another 96-well plate already containing 60 microliters of reaction buffer (RB: 10 mM Tris-HCl, pH 7.5, 10 mM MgCl2, 0.1 mM EGTA, 0.01% Triton-X100 (Sigma #X-100), freshly added 1 mM DTT). After mixing, the […] reactions are assembled. First, five microliters of the above compound/reaction buffer mixture is transferred to the bottom of a 96-well black polystyrene reaction plate (Costar, #3694). Next, ten microliters of a solution containing 4 micromolar ATP and 40 nanomolar fluorescent-labeled Crosstide (Tamara-labeled […] peptide) are added. Then, 5 microliters (1.5 nanograms) of Akt protein in RB are added. The version of Akt used in these studies lacks the pleckstrin homology (PH) domain, and contains an aspartic acid residue in place of a serine residue in position 473 within the Akt1 hydrophobic motif. The Akt1 protein contains a polyhistidine tag at the amino terminus and is prephosphorylated on threonine at position 308 in order to activate latent kinase activity. Once the reaction components and inhibitors are assembled, the plates are gently tapped, covered with foil, and then incubated at ambient temperature for 30 minutes. IMAP beads (Molecular Devices) are then added (60 microliters of a 1:400 dilution of beads in RB). Plates are read on a Victor Plate Reader with the following settings: CW lamp filter: 544 nm, emission filter: 615 nm. Control values from wells lacking Akt protein are subtracted from the gross readings, and IC50 values are calculated using XLDA.

[1] abbreviates: Table 1, concentration bins, read-out: Concentration Range at which exemplary compounds of formula I inhibit Akt kinase activity.
Setting [2] is: Table 3, read-out: Avg Akt kinase, μM (50% inhibition).

Molecules are shown by their SMILES. Where two headings read alike, the source gives them in different places.

T1 sequence (P31749 118-480 S473D limits assumed, species assumed): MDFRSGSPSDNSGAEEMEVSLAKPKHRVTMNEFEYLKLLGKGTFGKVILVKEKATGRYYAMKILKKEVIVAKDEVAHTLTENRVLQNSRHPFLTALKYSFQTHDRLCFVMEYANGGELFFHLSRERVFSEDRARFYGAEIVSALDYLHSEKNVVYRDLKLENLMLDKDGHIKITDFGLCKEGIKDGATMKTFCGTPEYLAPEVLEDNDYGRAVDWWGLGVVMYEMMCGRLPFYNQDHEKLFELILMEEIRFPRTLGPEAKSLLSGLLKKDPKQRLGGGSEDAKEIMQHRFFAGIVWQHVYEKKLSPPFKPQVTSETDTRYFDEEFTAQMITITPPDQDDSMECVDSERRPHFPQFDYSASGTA

Consider `COc1cc(NCC2(N)CCN(c3ncnc4[nH]cc(C)c34)C2)cc(C(F)(F)F)c1` (centres unmarked) [Example 30, 3-({[3-methoxy-5-(trifluoromethyl)phenyl]amino}-methyl)-1-(5-methyl-7H-pyrrolo[2,3-d]pyrimidin-4-yl)pyrrolidin-3-amine], for which the IC50 was 0.0101 to 0.1 µM under setting [1] and 0.0135 µM under setting [2].
For `Cc1c[nH]c2ncnc(N3CCC(N)(CNc4ccc(Cl)cc4F)C3)c12` (centres unmarked) [Example 31, 3-{[(4-chloro-2-fluorophenyl)amino]methyl}-1-(5-methyl-7H-pyrrolo[2,3-d]pyrimidin-4-yl)pyrrolidin-3-amine] the same measures were 0.00251 to 0.01 µM and 0.00514 µM.
As to `Cc1c[nH]c2ncnc(N3CCC(N)(CNc4cccc(F)c4F)C3)c12` (centres unmarked) [Example 32, 3-{[(2,3-difluorophenyl)amino]methyl}-1-(5-methyl-7H-pyrrolo[2,3-d]pyrimidin-4-yl)pyrrolidin-3-amine], the IC50 is, setting by setting: under setting [1], 0.0101 to 0.1 µM; under setting [2], 0.0105 µM.
Consider `Cc1c[nH]c2ncnc(N3CCC(N)(CNc4cc(C(F)(F)F)ccc4Oc4ccc(Cl)cc4)C3)c12` (centres unmarked) [Example 33, 3-({[2-(4-chlorophenoxy)-5-(trifluoromethyl)phenyl]amino}-methyl)-1-(5-methyl-7H-pyrrolo[2,3-d]pyrimidin-4-yl)pyrrolidin-3-amine], for which the IC50 by setting is: under setting [1], 0.00251 to 0.01 µM; under setting [2], 0.00859 µM.
In the case of `Cc1c[nH]c2ncnc(N3CCC(N)(CNc4ccc(F)cc4F)C3)c12` (centres unmarked) [Example 34, 3-{[(2,4-difluorophenyl)amino]methyl}-1-(5-methyl-7H-pyrrolo[2,3-d]pyrimidin-4-yl)pyrrolidin-3-amine], the IC50 is 0.00251 to 0.01 µM under setting [1] and 0.00771 µM under setting [2].
In the same order, the values of `Cc1c[nH]c2ncnc(N3CCC(N)(CNc4cccc5c4CCCC5)C3)c12` (centres unmarked) [Example 35, 1-(5-methyl-7H-pyrrolo[2,3-d]pyrimidin-4-yl)-3-[(5,6,7,8-tetrahydronaphthalen-1-ylamino)methyl]pyrrolidin-3-amine] are 0.00251 to 0.01 µM and 0.00797 µM.
For `Cc1c[nH]c2ncnc(N3CC[C@](N)(CNc4cccc(C(F)(F)F)c4F)C3)c12` [Example 36, (3S)-3-({[2-fluoro-3-(trifluoromethyl)phenyl]amino}-methyl)-1-(5-methyl-7H-pyrrolo[2,3-d]pyrimidin-4-yl)pyrrolidin-3-amine], the IC50 by setting is: under setting [1], 0.00025 to 0.0025 µM; under setting [2], 0.002 µM.
On to `Cc1c[nH]c2ncnc(N3CC[C@](N)(CNc4cccc(F)c4)C3)c12` [Example 37, (3S)-3-{[(3-fluorophenyl)amino]methyl}-1-(5-methyl-7H-pyrrolo[2,3-d]pyrimidin-4-yl)pyrrolidin-3-amine], for which the IC50 runs as follows: under setting [1], 0.00251 to 0.01 µM; under setting [2], 0.00329 µM.
Consider `N#Cc1c[nH]c2ncnc(N3CCC(N)(CNc4cccc5c4CCCC5)C3)c12` (centres unmarked) [Example 38, 4-{3-amino-3-[(5,6,7,8-tetrahydronaphthalen-1-ylamino)methyl]pyrrolidin-1-yl}-7H-pyrrolo[2,3-d]pyrimidine-5-carbonitrile], for which the IC50 under setting [1] is 0.00251 to 0.01 µM and the IC50 under setting [2] amounted to 0.00371 µM.
Turning to `N#Cc1c[nH]c2ncnc(N3CCC(N)(CNc4ccc5c(c4)CNCC5)C3)c12` (centres unmarked) [Example 39, 4-{3-amino-3-[(1,2,3,4-tetrahydroisoquinolin-7-ylamino)methyl]pyrrolidin-1-yl}-7H-pyrrolo[2,3-d]pyrimidine-5-carbonitrile], the IC50 was 0.101 to 10 µM under setting [1] and 4.1 µM under setting [2].
For `N#Cc1c[nH]c2ncnc(N3CCC(N)(CNc4cccc(C(F)(F)F)c4F)C3)c12` (centres unmarked) [Example 40, 4-[3-amino-3-({[2-fluoro-3-(trifluoromethyl)phenyl]amino}-methyl)pyrrolidin-1-yl]-7H-pyrrolo[2,3-d]pyrimidine-5-carbonitrile] the same measures were 0.00251 to 0.01 µM and 0.00807 µM.
As for `Cc1n[nH]c2ncnc(N3CCC(N)(CNc4cccc(Cl)c4F)C3)c12` (centres unmarked) [Example 41, 3-{[(3-chloro-2-fluorophenyl)amino]methyl}-1-(3-methyl-1H-pyrazolo[3,4-d]pyrimidin-4-yl)pyrrolidin-3-amine], the IC50 runs as follows: under setting [1], 0.0101 to 0.1 µM; under setting [2], 0.0134 µM.
For `NC1(CNc2cccc(C(F)(F)F)c2)CCN(c2ccnc3[nH]ccc23)C1` (centres unmarked) [Example 42, 1-(1H-pyrrolo[2,3-b]pyridin-4-yl)-3-({[3-(trifluoromethyl)phenyl]amino}-methyl)pyrrolidin-3-amine] the same measures were 0.0101 to 0.1 µM and 0.0354 µM.
For the compound `Cc1c(Cl)cccc1NCC1(N)CCN(c2ncnc3[nH]cc(Cl)c23)C1` (centres unmarked) [Example 43, 3-{[(3-chloro-2-methylphenyl)amino]methyl}-1-(5-chloro-7H-pyrrolo[2,3-d]pyrimidin-4-yl)pyrrolidin-3-amine], the IC50 was 0.00025 to 0.0025 µM under setting [1] and 0.002 µM under setting [2].
For `Cc1c[nH]c2ncnc(N3CCC(N)(CNc4cccc(-c5cnco5)c4)C3)c12` (centres unmarked) [Example 44, 1-(5-methyl-7H-pyrrolo[2,3-d]pyrimidin-4-yl)-3-({[3-(1,3-oxazol-5-yl)phenyl]amino}methyl)pyrrolidin-3-amine] the same measures were 0.101 to 10 µM and 0.837 µM.
With `Cc1c[nH]c2ncnc(N3CCC(N)(CN(C)Cc4ccc(Cl)cc4)C3)c12` (centres unmarked) [Example 45, 3-{[(4-chlorobenzyl)(methyl)-amino]methyl}-1-(5-methyl-7H-pyrrolo[2,3-d]pyrimidin-4-yl)pyrrolidin-3-amine], the IC50 is, setting by setting: under setting [1], 0.101 to 10 µM; under setting [2], 0.144 µM.
In the case of `Cc1c[nH]c2ncnc(N3CCC(N)(CNCCN(C)C)C3)c12` (centres unmarked) [Example 46, N′-{[3-amino-1-(5-methyl-7H-pyrrolo[2,3-d]pyrimidin-4-yl)pyrrolidin-3-yl]methyl}-N,N-dimethylethane-1,2-diamine], the IC50 is, setting by setting: under setting [1], 0.101 to 10 µM; under setting [2], 0.125 µM.
Take `Cc1c[nH]c2ncnc(N3CCC(N)(CN(CCN(C)C)Cc4ccccc4)C3)c12` (centres unmarked) [Example 47, N-{[3-amino-1-(5-methyl-7H-pyrrolo[2,3-d]pyrimidin-4-yl)pyrrolidin-3-yl]methyl}-N-benzyl-N′,N′-dimethylethane-1,2-diamine]: the IC50 by setting is: under setting [1], 0.101 to 10 µM; under setting [2], 0.172 µM.
With `Cc1c[nH]c2ncnc(N3CCC(N)(CN(C)c4ccccc4)C3)c12` (centres unmarked) [Example 48, 3-{[methyl(phenyl)amino]methyl}-1-(5-methyl-7H-pyrrolo[2,3-d]pyrimidin-4-yl)pyrrolidin-3-amine], the IC50 under setting [1] fell in the range of 0.101 to 10 µM and the IC50 under setting [2] amounted to 0.12 µM.
In the same order, the values of `Cc1c[nH]c2ncnc(N3CCC(N)(CN4CCCc5ccccc54)C3)c12` (centres unmarked) [Example 49, 3-(3,4-dihydroquinolin-1(2H)-ylmethyl)-1-(5-methyl-7H-pyrrolo[2,3-d]pyrimidin-4-yl)pyrrolidin-3-amine] are 0.101 to 10 µM and 0.131 µM.
Turning to `CCN(CC1(N)CCN(c2ncnc3[nH]cc(C)c23)C1)c1ccccc1` (centres unmarked) [Example 50, 3-{[ethyl(phenyl)amino]methyl}-1-(5-methyl-7H-pyrrolo[2,3-d]pyrimidin-4-yl)pyrrolidin-3-amine], the IC50 is, setting by setting: under setting [1], 0.101 to 10 µM; under setting [2], 0.116 µM.
In the same order, the values of `Cc1c[nH]c2ncnc(N3CCC(N)(CN4CCc5ccccc54)C3)c12` (centres unmarked) [Example 51, 3-(2,3-dihydro-1H-indol-1-ylmethyl)-1-(5-methyl-7H-pyrrolo[2,3-d]pyrimidin-4-yl)pyrrolidin-3-amine] are 0.0101 to 0.1 µM and 0.0362 µM.
